Experiments:
[1] = test system: stage II and III colorectal cancers; experiment: Survival of stage II and III colorectal cancer patients treated by surgery alone or surgery plus standard 5FU chemotherapy, by hMLH1 methylation; assay type: in vivo, human
Description: The predictive value of hMLH1 methylation for survival benefit with 5FU chemotherapy was examined in a series of stage II and III colorectal cancers that had been treated by surgery alone (no chemotherapy) or by surgery plus standard 5FU chemotherapy.
The following primers were used to detect methylated hMLH1 following bisulfite conversion (utilising the MSP technique): […]

stage III CRC patients = experiment: Survival of stage III CRC patients treated by surgery alone or by surgery and 5-FU/leucovorin (matched cohorts), by CIMP status; assay type: in vivo, human
Description: A total of 891 stage III CRC cases were diagnosed at the Sir Charles Gairdner Hospital between 1985 and 1999 (14). This spans the time period during which 5-FU-based adjuvant chemotherapy was being introduced in Western Australia for the management of stage III CRC. Adjuvant chemotherapy was given to 270 (30%) patients according to the standard Mayo regimen (5-FU/leucovorin). This comprised at least two cycles of chemotherapy, and for the majority of patients the full six cycles were completed. Patients were separated into categories based on 5-year age intervals, gender, and site of tumor origin. […] Within these groups, adjuvant-treated and nontreated patients were pair-matched at random. A total cohort of 125 matched pairs was selected for DNA methylation analysis. […] All cases were diagnosed at a single pathology laboratory (Hospital and University Pathology Service/Pathcenter) associated with the Sir Charles Gairdner Hospital. This laboratory maintained relatively constant reporting practices during the 1985-1999 study period. Five cases were classified as T4 lesions, and all others were classified as T3. The study included 48 rectal, 24 sigmoid, 24 descending colon, 17 transverse colon, 47 ascending colon, and 46 cecal tumors. Four patients with rectal cancer received post-operative radiotherapy. Disease-specific survival information was obtained on all 206 patients by examination of hospital and West Australian Health Department records. The median follow-up time was 39 months (range, 1-172 months), with 119 patients (58%) dying as a result of recurrent disease by the end of the study. Survival data for 19 (9%) patients who died from other causes were censored at the time of death. It has been estimated that net migration out of the state of Western Australia is 0.4% per year, equating to approximately 1 case/year of the 206 cases investi-gated in this series. However, this rate is expected to be considerably lower for older individuals and particularly for those diagnosed with cancer. The Sir Charles Gairdner Hospital Human Research Ethics Committee gave approval for this study.
Methylation-specific PCR was used to determine the methylation status of CpG islands located within the p16 promoter (4, 5, 10, 17), the MINT-2 clone (3, 4), and the MDR1 promoter (4, 9). DNA amplification of all three CpG loci was successful for 103 matched pairs, equating to an overall success rate of approximately 90%. CIMP+ was arbitrarily defined as the presence of two or more of these sites showing methylation. Of the 206 tumors successfully analyzed in this study for CIMP+ status, the majority (83%) were sourced from formalin-fixed and paraffin-embedded archival tissue blocks. The remaining cases were in the form of unfixed tissue samples taken shortly after surgical resection and stored frozen at −80° C.
Multivariate Cox proportional hazard test with matched-pair stratification and Kaplan-Meier analyses were used to evaluate differences in survival between patient groups. Regression sensitivity was determined by analyzing the effect of unmeasured binary confounders as described by Lin et al. (20) Statistical analyses were performed using the Stata 7.0 (College Station, Tex.) software package. All Ps are two-sided.

Question: With `O=c1[nH]cc(F)c(=O)[nH]1` [5-FU, 5-fluorouracil] as the compound, how does the “survival of patient group” value ([1]; hMLH1 methylated, chemotherapy (10/10), P = 0.097 vs no chemotherapy) read?
Answer: The value was 10/10 (100%) P = 0.097.

Question: And the “survival of patient group” value ([1]; hMLH1 non-methylated, chemotherapy (15/22), P = NS vs no chemotherapy)?
Answer: The value was 15/22 (68%) P = NS.

Question: And the “impact of chemotherapy on overall survival” value ([1]; patients with methylated hMLH1 gene, chemotherapy vs no chemotherapy (FIG. 3C))?
Answer: The value was “positive impact”.

Question: And the “RR (relative risk), predictive value of CIMP+ for survival benefit” value (stage III CRC patients; CIMP+, multivariate analysis for matched pairs, independent of MSI+ and p53 status, 95% CI 0.06-0.84, P=0.027)?
Answer: The value was 0.22.

Question: And the “long-term survival benefit from 5-FU treatment” value (stage III CRC patients; CIMP- patients)?
Answer: Its value is “no long-term survival benefit”.

Question: What about the “RR (relative risk), survival benefit from 5-FU” value (stage III CRC patients; CIMP- patients, 95% CI 0.62-1.49, P=0.86) of the same compound?
Answer: The value was 0.96.

Question: What about the “RR (relative risk), survival benefit associated with the use of 5-FU” value (stage III CRC patients; all stage III CRC patients, surgery + 5-FU vs surgery alone, 95% CI 0.43-0.90, P=0.012) of the same compound?
Answer: Its value is 0.62.

Question: What about the “survival of CIMP+ patients compared to CIMP-” value (stage III CRC patients; cohort treated with surgery plus 5-FU) of the same compound?
Answer: Its value is “trend for better survival”.

Question: And the “patients who died from recurrent CRC despite the use of 5-FU” value (stage III CRC patients; patients with CIMP+ tumors)?
Answer: Its value is “approximately 40%”.

Reference: patent US20050118613A1, “Methods and kits for predicting the likelihood of successful treatment of cancer” (Oncomethylome Sciences S.A., priority 2003, published 2005)
